The values below come from US11767298B2, “Substituted benzimidazoles as inhibitors of transforming growth factor-β kinase” (Duke University, priority 2016, dated 2023).

Assay [1] has as its system K63-linked ubiquitination. In words: Western blot for K63-linked ubiquitination in Plasmodium blood stage. The format is cell-based, P. falciparum. The following applies: 0.001-100 μM, 24 hr, ring-stage blood stage parasites. The method, then: P. falciparum asexual blood-stage culture. P. falciparum 3D7 isolate was maintained under standard conditions in complete culturing medium [10.44 g/L RPMI 1640 (Invitrogen), 5.94 g/L HEPES (Invitrogen), 50 mg/L hypoxanthine (Sigma), 2.02 g/L sodium bicarbonate (Sigma), 5 g/L albuMAX II (Invitrogen), 25 mg/L gentamicin (Sigma), pH 7.2]. Parasite cultures were supplied with human red blood cells (Gulf Coast Regional Blood Center) at 1% hematocrit. To obtain synchronous cultures, Plasmodium parasites (at least 50% parasites were at the early-ring stage) were pelleted at 300×g for 7 min using a low brake setting and treated with 25 volume 5% D-sorbitol (Sigma) at 37° C. for 10 min. Treated parasites were then harvested and washed with 25 volume of complete culturing medium using the aforementioned centrifugation protocol, and diluted with the complete medium to 1% hematocrit to maintain the parasite culture at 37° C. and 5% CO2.
Protein extraction and Western blot for K63-linked ubiquitination in Plasmodium blood stage. […] Total protein lysates were heated in SDS loading buffer for 5 min at 80° C., analyzed on 4-20% Tris-Glycine polyacrylamide gels (Novex, Life Technologies) and subsequently transferred to nitrocellulose membranes. […]

For the next assay, the target named is GCK (Homo sapiens, UniProt Q12851). In words: Kinase profiling (Dundee), GCK. In kind it is biochemical. The following applies: 10 μM. The method, then: Kinase selectivity profiling. The selectivity profile of HS-206 to inhibit mammalian kinases was tested against a panel of 140 kinases at a single concentration of 10 μM. Tests were performed using a radiolabeld (^33P-ATP) filter-binding assay at the International Centre for Kinase Profiling at the University of Dundee, UK (http://www.kinase-screen.mrc.ac.uk/).
GCK, sequence (Q12851 whole entry): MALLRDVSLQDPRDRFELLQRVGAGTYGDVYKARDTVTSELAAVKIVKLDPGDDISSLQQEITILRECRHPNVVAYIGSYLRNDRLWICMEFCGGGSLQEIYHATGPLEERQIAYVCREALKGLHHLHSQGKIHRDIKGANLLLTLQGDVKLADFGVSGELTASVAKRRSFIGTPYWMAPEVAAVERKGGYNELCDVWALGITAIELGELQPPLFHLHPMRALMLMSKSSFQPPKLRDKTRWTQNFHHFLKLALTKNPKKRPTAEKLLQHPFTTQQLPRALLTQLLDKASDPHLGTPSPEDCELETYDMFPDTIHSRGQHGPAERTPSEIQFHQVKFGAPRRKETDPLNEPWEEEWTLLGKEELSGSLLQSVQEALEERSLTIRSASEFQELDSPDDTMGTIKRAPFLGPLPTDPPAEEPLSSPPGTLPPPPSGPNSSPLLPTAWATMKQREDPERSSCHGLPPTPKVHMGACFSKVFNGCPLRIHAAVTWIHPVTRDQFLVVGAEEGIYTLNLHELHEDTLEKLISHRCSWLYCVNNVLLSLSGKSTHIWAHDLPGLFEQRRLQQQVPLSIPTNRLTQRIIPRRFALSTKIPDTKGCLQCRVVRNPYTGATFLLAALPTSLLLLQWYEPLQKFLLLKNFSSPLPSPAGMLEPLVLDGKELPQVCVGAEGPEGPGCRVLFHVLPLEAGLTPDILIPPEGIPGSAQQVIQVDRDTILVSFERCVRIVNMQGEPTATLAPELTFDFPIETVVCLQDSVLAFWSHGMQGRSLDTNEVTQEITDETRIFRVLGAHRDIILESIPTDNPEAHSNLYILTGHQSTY
This panel contains members of all major kinase families, including tyrosine kinases (TK), tyrosine kinase-like (TKL), sterile serine/threonine (STE), and CDK/MAPK/GSK/CLK (CMGC). […] For these kinases, IC50 values were determined (Table 1).

The next assay has as its system ATP-binding proteins. Description: ATP-beads off-target elution, HepG2 whole-cell lysates. The following applies: uninfected HepG2 lysate; compared to DMSO control.
The next assay deals with MDA-MB-231. Description: Viability and proliferation assays on breast cancer cell lines. The format is cell-based. The following applies: 48 h and 72 h.

“Also recorded” adds a separate entry of the source.

For `CCCn1c(NC(=O)c2cccc(C(N)=O)c2)nc2ccccc21` [HS-206 (1), (E)-N-(1-Propyl-1,3-dihydro-2H-benzo[d]imidazol-2-ylidene)isophthalamide], the “levels of K63-linked ubiquitinated proteins” value in assay [1] is on record as “dose-dependent decrease”. The inhibition at 10 µM against GCK was above 90%. For the same compound, the “elution of ATP-binding proteins from ATP-sepharose beads” value in the assay with ATP-binding proteins is “did not lead to any significant elution of ATP-binding proteins”. The cell proliferation result in the assay with MDA-MB-231 is on record as “significant reduction in cell proliferation; also recorded: inhibits cell proliferation in a dose-dependent manner”.
